Data on 14 compounds can be found in US4935431A, “Substituted 7-amino-thienopyridine derivatives as gastric acid secretion inhibitors” (SmithKline Beckman Intercredit B.V., priority 1988, dated 1990).

For assay [1], the system named is pentagastrin stimulated gastric acid secretion. Nature of the assay: Rat Lumen Perfused Stomach (Pentagastrin Stimulated Gastric Acid Secretion). To be noted: for ED50: iv, read-out: RAT GS ED50; for RAT GS % inhibition @ 10 μmol/kg: i.v. It counts as in vivo. From the text: B. Rat Lumen Perfused Stomach (Pentagastrin Stimulated Gastric Acid Secretion)
Using a modification of the procedure described by Ghosh & Schild (Br. J. Pharmacology, 13, 54, 1958), the compounds of the following examples were found on i.v. administration to cause an inhibition of pentagastrin stimulated gastric acid secretion as indicated in the following table. Results are given as % inhibition at 10 μmole/kg or ED50 (μM/kg): […]

The next assay has as its target T1, H^+ K^+ ATPase (Sus scrofa, UniProt P19156).
T1 construct: Lyophilised gastric vesicles were prepared from pig fundic mucosa; from tissue; host or cells: pig fundic mucosa (lyophilised gastric vesicles)
Nature of the assay: K^+ -stimulated ATPase activity in lyophilised gastric vesicles (H/K-ATPase). In kind it is biochemical. To be noted: lyophilised gastric vesicles from pig fundic mucosa, 37° C., pH 7.0, 30 minutes. The protocol: A. H^+ K^+ ATPase Activity The effects of a single high concentration (100 μM) of a compound of structure (I) on K^+ -stimulated ATPase activity in lyophilised gastric vesicles was determined. Preferred compounds of structure (I) were also tested over a range of concentrations to determine IC50 values. (i) Preparation of Lyonhilised Gastric Vesicles (H/K-ATPase) Lyophilised gastric vesicles were prepared from pig fundic mucosa after the method of Keeling et. al. (Biochem. Pharmacol., 34, 2967, 1985). (ii) K^+ -Stimulated ATPase Activity K^+ -stimulated ATPase activity was determined at 37° C. in the presence of the following: 10 mM Pipes/Tris buffer pH 7.0, 2 mM MgSO4, 1 mM KCl, 2 mM Na2 ATP and 3 μg protein/ml lyophilised gastric vesicles. After incubation for 30 minutes, the inorganic phosphate hydrolysed from ATP was determined by the method of Yoda and Hokin (Biochem. Biophys. Res. Commun. 40, 880, 1970). Compounds of structure (I) were dissolved in dimethylsulphoxide which up to the highest concentration used had no effect on K^+ -stimulated ATPase activity. The effect of the highest concentration of each compound of structure (I) on the recovery of a standard amount of inorganic phosphate was also determined.

Counter-ions that a name gives are not always drawn.

T1 sequence (P19156 2-1034 limits assumed): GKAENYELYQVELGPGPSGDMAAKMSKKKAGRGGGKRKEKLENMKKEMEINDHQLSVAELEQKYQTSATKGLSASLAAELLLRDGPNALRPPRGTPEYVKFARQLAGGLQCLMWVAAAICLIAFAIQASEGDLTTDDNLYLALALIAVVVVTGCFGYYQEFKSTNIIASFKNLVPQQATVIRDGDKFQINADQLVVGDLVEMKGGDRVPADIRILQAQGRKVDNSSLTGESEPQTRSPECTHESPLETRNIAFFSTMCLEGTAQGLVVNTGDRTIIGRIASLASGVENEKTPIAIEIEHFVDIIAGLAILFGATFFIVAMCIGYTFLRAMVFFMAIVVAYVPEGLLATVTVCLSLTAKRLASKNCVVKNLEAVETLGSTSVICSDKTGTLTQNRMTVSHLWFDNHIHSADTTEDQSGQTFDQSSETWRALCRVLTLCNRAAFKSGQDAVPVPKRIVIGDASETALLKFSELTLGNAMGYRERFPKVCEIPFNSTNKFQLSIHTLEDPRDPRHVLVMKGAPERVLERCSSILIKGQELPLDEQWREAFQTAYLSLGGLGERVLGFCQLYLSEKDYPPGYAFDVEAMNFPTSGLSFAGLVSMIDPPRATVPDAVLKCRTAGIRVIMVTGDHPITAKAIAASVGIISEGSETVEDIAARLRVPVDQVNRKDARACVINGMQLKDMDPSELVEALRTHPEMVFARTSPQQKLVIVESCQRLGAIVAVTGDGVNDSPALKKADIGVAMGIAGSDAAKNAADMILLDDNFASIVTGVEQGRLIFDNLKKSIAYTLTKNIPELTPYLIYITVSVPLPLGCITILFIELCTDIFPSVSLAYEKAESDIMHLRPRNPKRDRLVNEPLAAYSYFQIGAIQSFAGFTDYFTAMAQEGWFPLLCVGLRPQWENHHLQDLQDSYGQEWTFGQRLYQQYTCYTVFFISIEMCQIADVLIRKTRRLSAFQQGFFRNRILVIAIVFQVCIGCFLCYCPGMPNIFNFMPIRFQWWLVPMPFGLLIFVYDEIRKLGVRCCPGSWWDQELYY
T1 sequence (P18434 whole entry partner): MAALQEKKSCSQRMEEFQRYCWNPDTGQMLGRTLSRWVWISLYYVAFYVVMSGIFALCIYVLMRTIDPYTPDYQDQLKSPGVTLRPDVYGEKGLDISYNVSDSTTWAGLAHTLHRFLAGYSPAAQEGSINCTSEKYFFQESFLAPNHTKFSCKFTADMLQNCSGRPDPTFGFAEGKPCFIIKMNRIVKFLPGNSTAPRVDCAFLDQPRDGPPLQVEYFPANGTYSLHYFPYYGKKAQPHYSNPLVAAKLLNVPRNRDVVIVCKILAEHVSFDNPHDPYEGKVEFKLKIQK

For `CCOC(=O)c1cnc2ccsc2c1Nc1ccccc1C` [Example 3, Ethyl 7-(2-methylphenylamino)thieno[3,2-b]pyridine-6-carboxylate], in assay [1], the ED50 – broadly, the dose that gives a 50% effect, or the effect in half of the subjects – turned out to be 9.7 µmol/kg. Also, inhibition against H^+ K^+ ATPase was half-maximal at 0.62 µM (IC50).
With `CCCC(=O)c1cnc2ccsc2c1Nc1ccccc1C` [Example 11, 6-Butyryl-7-(2-methylphenylamino)thieno[3,2-b]pyridine], the “RAT GS % inhibition @ 10 μmol/kg” value in assay [1] was found to be 55%. The IC50 (usually the concentration at which inhibition is half-maximal) on H^+ K^+ ATPase came to 0.88 µM.
Consider `CCCC(=O)c1cnc2c(OC)csc2c1Nc1ccccc1C` [Example 9, 6-Butyryl-7-(2-methylphenylamino)-3-methoxythieno[3,2-b]pyridine], for which the IC50 against H^+ K^+ ATPase is 13 µM.
`CCOC(=O)c1cnc2sccc2c1NCc1ccccc1` [Example 2, Ethyl 4-benzylaminothieno[2,3-b]pyridine-5-carboxylate]: the “RAT GS % inhibition @ 10 μmol/kg” value in assay [1] is reported as 13%. On H^+ K^+ ATPase, this compound displayed a 50% inhibitory concentration (IC50) of 9.71 µM.
Consider `CCCC(=O)c1cnc2ccsc2c1Nc1ccccc1CC` [Example 13, 6-Butyryl-7-(2-ethylphenylamino)thieno[3,2-b]pyridine], for which the ED50 in assay [1] was 3.32 µmol/kg. In addition, the IC50 against H^+ K^+ ATPase is 1.1 µM.
On to `CCCC(=O)c1cnc2ccsc2c1Nc1ccc(F)cc1C` [Example 12, 6-Butyryl-7-(4-fluoro-2-methylphenylamino)thieno[3,2-b]-pyridine], for which the “RAT GS % inhibition @ 10 μmol/kg” value in assay [1] is 38%. In addition, on H^+ K^+ ATPase, the IC50 was 4.3 µM.
On to `CCOC(=O)c1cnc2c(OC)csc2c1Nc1ccccc1C` [Example 7, Ethyl 3-methoxy-7-(2-methylohenylamino)thieno[3,2-b] pyridine-6-carboxylate], for which the IC50 on H^+ K^+ ATPase was determined as 21 µM.
On H^+ K^+ ATPase, `CCCC(=O)c1cnc2ccsc2c1Nc1ccccc1CCC` [Example 14, 6-Butyryl-7-(2-propylphenylamino)thieno[3,2-b]pyridine hydrochloride] displayed a half-inhibitory concentration (IC50) of 1.2 µM.
Take `CCCC(=O)c1cnc2ccsc2c1Nc1ccc(O)cc1C` [Example 16, 6-Butyryl-(4-hydroxy-2-methylphenylamino)thieno[3,2-b]-pyridine]: the median effective dose (ED50) in assay [1] was 4.03 µmol/kg. This compound also displayed an IC50 on H^+ K^+ ATPase of 0.33 µM.
Turning to `CCOC(=O)c1cnc2sccc2c1Nc1ccccc1C` [Example 1, Ethyl 4-(2-methylohenylamino)thieno[2,3-b]pyridine-5-carboxylate], in assay [1], the “RAT GS % inhibition @ 10 μmol/kg” value was 32%. In addition, on H^+ K^+ ATPase, the IC50 was determined as 3 µM.
Taken in the same sequence, the figures for `CCCC(=O)c1cnc2ccsc2c1Nc1ccccc1C(C)C` [Example 15, 6-Butyryl-7-(2-isopropylphenylamino)thieno[3,2-b]pyridine] were 62% and 0.86 µM.
Take `CCOC(=O)c1cnc2ccsc2c1NCc1ccccc1` [Example 4, Ethyl 7-benzylaminothieno[3,2-b]pyridine-6-carboxylate]: the “RAT GS % inhibition @ 10 μmol/kg” value in assay [1] is reported as 19%. Further, at H^+ K^+ ATPase, the IC50 worked out at 4.3 µM.
`CCOC(=O)c1cnc2c(C)csc2c1NCc1ccccc1` [Example 6, Ethyl 3-methyl-7-benzylaminothieno[3,2-b]pyridine-6-carboxylate]: the “RAT GS % inhibition @ 10 μmol/kg” value in assay [1] stood at 31%.
As to `CCOC(=O)c1cnc2c(C)csc2c1Nc1ccccc1C` [Example 5, Ethyl 3-methyl-7-(2-methylphenylamino)thieno[3,2-b]-pyridine-6-carboxylate], in assay [1], the ED50 is 11.2 µmol/kg.
